Publication PMC7689490, “Designed CXCR4 mimic acts as a soluble chemokine receptor that blocks atherogenic inflammation by agonist-specific targeting” (Nature Communications, 2020)
Values joined by “and” are separate entries in the source; they are usually repeats but may differ in a detail not shown here. Equal entries are not always repeated. Where two headings read alike, the source gives them in different places. One block for each compound: values may come before it. Where a SMILES comes first, the peptide text is derived from it.

Columns and labels:
in vitro [1] = details: human, plasma
[2] = Circular dichroism (CD) spectroscopy (conformation, concentration dependence); assay type: physicochemical; details: far-UV CD at 1-20 µM, 10 mM sodium phosphate pH 7.4, 1% HFIP; region 210-225 nm; compared with msR4M-L1
Procedure: Briefly, far-UV CD measurements were carried out between 195 and 250 nm. The response time was set at 1 s, intervals at 0.1 nm, and bandwidth at 1 nm. All spectra were measured at RT and represent an average of three recorded spectra. Scans were recorded for the ectodomain mimic peptides at a concentration of 1–20 µM in 10 mM sodium phosphate buffer, pH 7.4, containing 1% HFIP, following dilution of freshly made peptide stock solution in HFIP (4 °C) into the buffer-containing cuvette. […] The background spectrum of buffer/1% HFIP alone was subtracted from the spectra of the peptides.

[3] = tested on: primary mouse spleen B lymphocytes; assay: MIF-triggered Transwell chemotaxis of primary splenic B cells; assay type: cell-based; details: 16 nM MIF; peptide at 5-fold molar excess (80 nM);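 note: migration tracked over 4 h at 37 °C, read out as transmigrated cells counted by flow cytometry with absolute counting beads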
Procedure: Briefly, splenic B cells were isolated by negative depletion using a Pan B Cell Isolation Kit (Miltenyi Biotec, Bergisch Gladbach, Germany). […] Chemotaxis was followed for 4 h at 37 °C in a humidified atmosphere of 5% CO2. Migrated cells were counted by flow cytometry using CountBright™ Absolute Counting Beads (Molecular Probes-Invitrogen).

MIF/CD74 = details: read-out: IC50 value for MIF/CD74 binding; ref [16],[43]; cited from earlier work
Excerpt: Specificity of the inhib ...

pAMPK/AMPK in HCM = assay: MIF/CD74-triggered AMPK signaling in human cardiomyocytes (HCM); assay type: cell-based
Procedure: HCMs (2 × 10^5 per well) were plated in 12-well plates and maintained for 2 days with cultured medium containing 5% FCS. Before stimulation, medium was replaced by fresh myocyte basal medium containing 0.05% FCS and HCMs rested for 16 h. Surface CD74 expression on HCMs was verified by flow cytometry (FITC-conjugated anti-human CD74 (1:100 dilution), FITC-IgG2 (isotype control) (BD Pharmingen), 1 h/4 °C in the dark, BD FACSVerse™ flow cytometer, FlowJo software). […] After treatment, cells were lysed and subjected to SDS-PAGE (10%)/Western blotting using NuPAGE® lithium dodecyl sulfate (LDS)/dithiothreitol (DTT) lysis buffer-containing PhosSTOP^TM reagent (Roche Applied Science). […] Anti-rabbit horse-radish peroxidase (HRP)-conjugated antibody (1:10000, GE Healthcare, Freiburg, Germany) was used for development and signals quantitated by chemiluminescence using an Odyssey® Fc imager. Unprocessed scans of the Western blots are supplied in the Source Data file.

in vitro [4] = details: C57/BL6, mouse, plasma
[5] = tested on: primary human monocyte-derived macrophages; assay: MIF-mediated DiI-oxLDL uptake / foam cell formation; assay type: cell-based; details: 80 nM MIF; AMD3100 10 µM
Procedure: (§1) After washing with imaging solution (MEM without phenol red containing 30 mM HEPES, 0.5 g/L NaHCO3, pH 7.4, and 0.2% BSA), cells were exposed to 50 µg mL^−1 1,1′-dioctadecyl-3,3,3′3′-tetramethylindocarbocyanine-labeled oxidized LDL (DiI-oxLDL) or DiI-labeled native LDL (DiI-LDL) for 30 min at 4 °C, followed by incubation at 37 °C for 20 min. Cells were washed with ice-cold imaging solution (pH 3.5), fixed, and counter-stained with Hoechst 33258.

[6] = tested on: primary human monocyte-derived macrophages; assay: MIF-mediated DiI-LDL uptake / foam cell formation; assay type: cell-based; details: 80 nM MIF
Procedure: as §1

MIF = target: T1, MIF (Homo sapiens, UniProt P14174); assay: Fluorescence spectroscopic titration of CXCR4 ectodomain peptides (and ISO-1) with MIF; assay type: binding
T1 construct: made in house; host or cells: E. coli BL21/DE3 (pET11b)
T1 sequence (P14174 2-115): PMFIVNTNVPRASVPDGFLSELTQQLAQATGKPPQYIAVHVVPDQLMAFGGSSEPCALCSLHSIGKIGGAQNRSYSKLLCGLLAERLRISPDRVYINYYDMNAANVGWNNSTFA
Procedure: Fluorescence spectroscopic titrations were performed using a JASCO FP-6500 fluorescence spectrophotometer.

SMILES: COC(=O)CC1CC(c2ccc(O)cc2)=NO1 (centres unmarked) [ISO-1]
IC50 (MIF/CD74): 10000 nM
Fig. 4e, Mean Diff, (Tukey's multiple comparisons test) (pAMPK/AMPK in HCM; B-C: MIF alone vs. MIF + ISO-1 3.1): 0.3348
Fig. 4e, Mean Diff, (Tukey's multiple comparisons test) (pAMPK/AMPK in HCM; B-D: MIF alone vs. MIF + ISO-1 15.6): 0.4593
Fig. 4e, Mean Diff, (Tukey's multiple comparisons test) (pAMPK/AMPK in HCM; B-E: MIF alone vs. MIF + ISO-1 31.3): 0.6907
Fig. 4e, Mean Diff, (Tukey's multiple comparisons test) (pAMPK/AMPK in HCM; B-F: MIF alone vs. MIF + ISO-1 62.5): 0.8729

SMILES: CC[C@H](C)[C@H](NC(=O)[C@H](Cc1ccc(O)cc1)NC(=O)[C@H](CCCNC(=N)N)NC(=O)[C@H](CC(=O)O)NC(=O)CCCCCCCCCCCNC(=O)CCCCCNC(=O)[C@H](CCCCN)NC(=O)[C@H](CS)NC(=O)[C@H](CC(C)C)NC(=O)[C@H](Cc1ccccc1)NC(=O)[C@H](CC(N)=O)NC(=O)CNC(=O)[C@H](Cc1ccccc1)NC(=O)[C@H](Cc1ccc(O)cc1)NC(=O)[C@H](Cc1c[nH]c2ccccc12)NC(=O)[C@H](CC(N)=O)NC(=O)[C@H](C)NC(=O)[C@@H](NC(=O)[C@H](C)NC(=O)[C@H](CC(=O)O)NC(=O)c1ccc2c(c1)C(=O)OC21c2ccc(N(C)C)cc2Oc2cc(N(C)C)ccc21)C(C)C)C(=O)N[C@@H](CS)C(=O)N[C@@H](CC(=O)O)C(=O)N[C@@H](CCCNC(=N)N)C(=O)N[C@@H](Cc1ccccc1)C(=O)N[C@@H](Cc1ccc(O)cc1)C(=O)N1CCC[C@H]1C(=O)N[C@@H](CC(N)=O)C(=O)N[C@@H](CC(=O)O)C(=O)N[C@@H](CC(C)C)C(=O)N[C@@H](Cc1c[nH]c2ccccc12)C(=O)N[C@H](C(N)=O)C(C)C [TAMRA-msR4M-L1]
level at 24 h (in vivo; C57/BL6, mouse, 50 ug): > 100 ng/mL
level at 48 h (in vivo; C57BL/6, mouse, ip, 50 ug per mouse): ~100 ng/mL
half-life at 482 nM (in vitro [4]): ~20 h

SMILES: c1cc(CN2CCCNCCNCCCNCC2)ccc1CN1CCCNCCNCCCNCC1 [AMD3100]
effect on MIF-mediated DiI-oxLDL uptake [5]: blocked
DiI-LDL uptake (rel. units), MIF + AMD3100 ([6]; control ~1, MIF alone 2.09-3.63, individual experiments (four-times-two)): 0.6486 and 2.2972 and 2.822 and 1.2299 and 1.463 and 1.618 and 1.791 and 1.537

SMILES: CC[C@H](C)[C@H](NC(=O)[C@H](Cc1ccc(O)cc1)NC(=O)[C@H](CCCNC(=N)N)NC(=O)[C@H](CC(=O)O)NC(=O)CCCCCCCCCCCNC(=O)CCCCCNC(=O)[C@H](CCCCN)NC(=O)[C@H](CS)NC(=O)[C@H](CC(C)C)NC(=O)[C@H](C)NC(=O)[C@H](CC(N)=O)NC(=O)CNC(=O)[C@H](C)NC(=O)[C@H](C)NC(=O)[C@H](C)NC(=O)[C@H](CC(N)=O)NC(=O)[C@H](C)NC(=O)[C@@H](NC(=O)[C@H](C)NC(=O)[C@@H](N)CC(=O)O)C(C)C)C(=O)N[C@@H](CS)C(=O)N[C@@H](CC(=O)O)C(=O)N[C@@H](CCCNC(=N)N)C(=O)N[C@@H](C)C(=O)N[C@@H](C)C(=O)N1CCC[C@H]1C(=O)N[C@@H](CC(N)=O)C(=O)N[C@@H](CC(=O)O)C(=O)N[C@@H](CC(C)C)C(=O)N[C@@H](C)C(=O)N[C@H](C(N)=O)C(C)C [msR4M-L1(7xAla)] (HELM PEPTIDE1{D.A.V.A.N.A.A.A.G.N.A.L.C.K.[O=C(CCCCCN[*:1])[*:2]].[O=C(CCCCCCCCCCCN[*:1])[*:2]].D.R.Y.I.C.D.R.A.A.P.N.D.L.A.V.[am]}$$$$V2.0)
Kd (MIF): > 1000 nM
Kd (MIF; App. Kd Fluos-peptide/MIF, 1st curve, fluorescence spectroscopy, replicate 1): > 1000 nM
Kd (MIF; App. Kd Fluos-peptide/MIF, 2nd curve, fluorescence spectroscopy, replicate 2): > 1000 nM
Kd (MIF; App. Kd Fluos-peptide/MIF, 3rd curve, fluorescence spectroscopy, replicate 3): > 1000 nM
Kd (MIF; app. KD Fluos-labeled alanine analog/MIF, fluorescence titration spectroscopy, n=3): > 1000 nM
inhibition of MIF-mediated DiI-LDL uptake [6]: failed to inhibit
inhibition of MIF-mediated B-cell chemotaxis [3]: failed to inhibit

The next lines start with results.

remaining at 16 h, 13.7 µM (in vitro [1]): ~45%
SMILES: CC[C@H](C)[C@H](NC(=O)[C@H](Cc1ccc(O)cc1)NC(=O)[C@H](CCCNC(=N)N)NC(=O)[C@H](CC(=O)O)NC(=O)CCCCCCCCCCCNC(=O)CCCCCNC(=O)[C@H](CCCCN)NC(=O)[C@H](CS)NC(=O)[C@H](CC(C)C)NC(=O)[C@H](Cc1ccccc1)NC(=O)[C@H](CC(N)=O)NC(=O)CNC(=O)[C@H](Cc1ccccc1)NC(=O)[C@H](Cc1ccc(O)cc1)NC(=O)[C@H](Cc1c[nH]c2ccccc12)NC(=O)[C@H](CC(N)=O)NC(=O)[C@H](C)NC(=O)[C@@H](NC(=O)[C@H](C)NC(=O)[C@H](CC(=O)O)NC(=O)CCCCCNC(=O)CCCC[C@@H]1SC[C@@H]2NC(=O)N[C@@H]21)C(C)C)C(=O)N[C@@H](CS)C(=O)N[C@@H](CC(=O)O)C(=O)N[C@@H](CCCNC(=N)N)C(=O)N[C@@H](Cc1ccccc1)C(=O)N[C@@H](Cc1ccc(O)cc1)C(=O)N1CCC[C@H]1C(=O)N[C@@H](CC(N)=O)C(=O)N[C@@H](CC(=O)O)C(=O)N[C@@H](CC(C)C)C(=O)N[C@@H](Cc1c[nH]c2ccccc12)C(=O)N[C@H](C(N)=O)C(C)C [biotin-msR4M-L1]

aggregation propensity from concentration-dependent CD signal [2]: higher aggregation propensity
SMILES: CC[C@H](C)[C@H](NC(=O)[C@H](Cc1ccc(O)cc1)NC(=O)[C@H](CCCNC(=N)N)NC(=O)[C@H](CC(=O)O)NC(=O)CCCCCCCCCCCNC(=O)COCCOCCNC(=O)[C@H](CCCCN)NC(=O)[C@H](CS)NC(=O)[C@H](CC(C)C)NC(=O)[C@H](Cc1ccccc1)NC(=O)[C@H](CC(N)=O)NC(=O)CNC(=O)[C@H](Cc1ccccc1)NC(=O)[C@H](Cc1ccc(O)cc1)NC(=O)[C@H](Cc1c[nH]c2ccccc12)NC(=O)[C@H](CC(N)=O)NC(=O)[C@H](C)NC(=O)[C@@H](NC(=O)[C@H](C)NC(=O)[C@@H](N)CC(=O)O)C(C)C)C(=O)N[C@@H](CS)C(=O)N[C@@H](CC(=O)O)C(=O)N[C@@H](CCCNC(=N)N)C(=O)N[C@@H](Cc1ccccc1)C(=O)N[C@@H](Cc1ccc(O)cc1)C(=O)N1CCC[C@H]1C(=O)N[C@@H](CC(N)=O)C(=O)N[C@@H](CC(=O)O)C(=O)N[C@@H](CC(C)C)C(=O)N[C@@H](Cc1c[nH]c2ccccc12)C(=O)N[C@H](C(N)=O)C(C)C [msR4M-L2]
inhibition of MIF-mediated B-cell chemotaxis [3]: fully blocked
